Assay results taken from US9066516B2, “Uses of thaxtomin and thaxtomin compositions as herbicides” (priority 2008, dated 2015).

Assays:
Assay type in all cases: in vivo
[1] = tested on: small-flower umbrella sedge; test: Field study, 1-sq foot plots (Example 5); settings: 14 days after treatment
Experimental: (§1) The combined effect of thaxtomin A and two commercial herbicides (Bipyribac-sodium formulated as Regiment and Lemongrass oil formulated as GreenMatch EX) on small-flower umbrella sedge and watergrass is tested in a field study using small (1-sq foot) plots. All single product treatments and tank mix combinations were sprayed at 57 gal per acre. Means in each column marked with the same letter in Table 2 are not statistically different from each other at p<0.05

watergrass = test: Field study, 1-sq foot plots (Example 5); settings: 14 days after treatment
Experimental: as §1

broad-leaf mustard = test: Greenhouse synergy test MBI-005 + commercial herbicides (Example 11); settings: 14 days
Outline: (§2)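 Greenhouse pot test of MBI-005 combined with rice herbicides, sprayed at about ⅔ ml per replicate, 3 randomized replicates per treatment, held at 25° C. Weed control efficacy rated 7 and 14 days after treatment.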

sedge = test: as above; settings: 14 days
Outline: as §2

[2] = tested on: Barnyardgrass (Echinochloa crus-gali); test: Pre-emergence test of MBI-005, lab (Example 12); settings: pre-emergent; further: ranges in brackets are in %
Experimental: (§3) To further describe the spectrum of pre-emergence activity, tests were conducted in laboratory and field conditions. In laboratory testing, 35 seeds were placed on a ring of blotter paper inside a 3 cm petri dish and supplied with 4 ml of MBI-005 (≦0.1 mg MBI-005/ml). Water was used as a negative control and oryzalin applied as a positive control. Petri dishes were randomly placed in a growth room at 25° C. and 50% RH. Treatments were replicated three times and germinated seeds were counted 7 and 14 days after application; water was added as necessary to maintain moisture levels inside each petri dish.

[3] = tested on: Bearded Sprangletop (Leptochloa fascicularis); test: Pre-emergence test of MBI-005, lab (Example 12); settings: pre-emergent; further: ranges in brackets are in %
Experimental: as §3

[4] = tested on: Black nightshade (Solanum nigrum); test: Pre-emergence test of MBI-005, lab (Example 12); settings: pre-emergent; further: ranges in brackets are in %
Experimental: as §3

[5] = tested on: Bristlegrass/Foxtail (Setaria viridis); test: Pre-emergence test of MBI-005, lab (Example 12); settings: pre-emergent; further: ranges in brackets are in %
Experimental: as §3

[6] = tested on: Buckhorn plantain (Plantago lanceolata); test: Pre-emergence test of MBI-005, lab (Example 12); settings: pre-emergent; further: ranges in brackets are in %
Experimental: as §3

[7] = tested on: Canarygrass (Phalaris minior); test: Pre-emergence test of MBI-005, lab (Example 12); settings: pre-emergent; further: ranges in brackets are in %
Experimental: as §3

[8] = tested on: Clover (Trifolium repens); test: Pre-emergence test of MBI-005, lab (Example 12); settings: pre-emergent; further: ranges in brackets are in %
Experimental: as §3

[9] = tested on: Fall Panicum (Panicum dichotomiflorum); test: Pre-emergence test of MBI-005, lab (Example 12); settings: pre-emergent; further: ranges in brackets are in %
Experimental: as §3

[10] = tested on: Horseweed (R) (Conyza canadensis); test: Pre-emergence test of MBI-005, lab (Example 12); settings: pre-emergent, herbicide resistant population; further: ranges in brackets are in %
Experimental: as §3

[11] = tested on: Lambsquarters (Chenopodium album); test: Pre-emergence test of MBI-005, lab (Example 12); settings: pre-emergent; further: ranges in brackets are in %
Experimental: as §3

[12] = tested on: Late watergrass (R) (Echinochloa phyllopogon); test: Pre-emergence test of MBI-005, lab (Example 12); settings: pre-emergent, herbicide resistant population; further: ranges in brackets are in %
Experimental: as §3

[13] = tested on: Mustard (Brassica juncea); test: Pre-emergence test of MBI-005, lab (Example 12); settings: pre-emergent
Experimental: as §3

[14] = tested on: Palmer pigweed (R) (Amaranthus palmerii); test: Pre-emergence test of MBI-005, lab (Example 12); settings: pre-emergent, herbicide resistant population; further: ranges in brackets are in %
Experimental: as §3

[15] = tested on: Ragweed (Ambrosia artemisifolia); test: Pre-emergence test of MBI-005, lab (Example 12); settings: pre-emergent; further: ranges in brackets are in %
Experimental: as §3

[16] = tested on: Ryegrass (Lolium perenne); test: Pre-emergence test of MBI-005, lab (Example 12); settings: pre-emergent; further: ranges in brackets are in %
Experimental: as §3

crabgrass = test: Post-emergent MBI-005 + Atrazine on crabgrass (Example 17); settings: for AVG E (visual % damage): 7DAT; for AVG/ E (visual % damage): 14DAT
Experimental: Ten seedlings in 2.5 cm square pots containing plant growth mix were sprayed with two suboptimal rates of MBI-005, and 35% of the atrazine label rate (0.3 gallons/A), or a combination thereof, at a volume of 40 gal/A using a cabinet track sprayer. Negative controls were sprayed with water. Pots were randomly placed in a growth room at 25° C. and 50% RH, and watered as necessary. Treatments were replicated five times and evaluated at 7 and 14 days for visual % damage, with 0% indicating no damage and 100% indicating plant death.
(§4) Synergy was calculated as the ratio of observed (E) to expected (E/Ee) percent control using Colby's formula.

[17] = tested on: small flower umbrella sedge; test: Post-emergent MBI-005 + rice herbicides on smallflower umbrella sedge (Example 19); settings: 14 days
Experimental: Twenty seedlings in 2.5 cm square pots containing plant growth mix were sprayed to full coverage using a hand sprayer. Negative controls were sprayed with water. Pots were randomly placed in a growth room at 25° C. and 50% RH, and watered as necessary. Treatments were replicated three times and evaluated at 7 and 14 days for visual % damage, with 0% indicating no damage and 100% indicating plant death.
as §4

barnyard grass = test: Post-emergent MBI-005 + Propanil on barnyard grass (Example 20); settings: 14 days
Experimental: Negative controls were sprayed with water. Pots were randomly placed in a growth room at 25° C. and 50% RH, and watered as necessary. Treatments were replicated three times and evaluated at 7 and 14 days for visual % damage, with 0% indicating no damage and 100% indicating plant death.
as §4

[18] = 12.5% MBI-005 Label Rate (0.125 mg/mL)
[19] = 25% MBI-005 Label Rate (0.25 mg/mL)

Q: Which “Sedge control (%)” value ([1]; Thaxtomin 0.25 mg/mL) does the source give for `CN1C(=O)[C@](O)(Cc2cccc(O)c2)N(C)C(=O)[C@@H]1Cc1c[nH]c2cccc([N+](=O)[O-])c12` [thaxtomin A] here?
A: 95a %

Q: And the “Sedge control (%)” value ([1]; Thaxtomin 0.5 mg/mL)?
A: 100a %

Q: What about the “Watergrass control (%)” value (watergrass; Thaxtomin 0.25 mg/mL) of the same compound?
A: 5d %

Q: And the “Watergrass control (%)” value (watergrass; Thaxtomin 0.5 mg/mL)?
A: 5d %

Q: And the “% Control MBI-005” value (broad-leaf mustard; MBI-005 0.125 mg/mL (cyhalofop line))?
A: 13.3%

Q: And the “% Control MBI-005” value (broad-leaf mustard; MBI-005 0.125 mg/mL (fenoxaprop-p-ethyl line))?
A: 45.8%

Q: What about the “% Control MBI-005” value (broad-leaf mustard; MBI-005 0.125 mg/mL (thiobencarb line)) of the same compound?
A: 54.2%

Q: What about the “% Control MBI-005” value (broad-leaf mustard; MBI-005 0.25 mg/mL (bispyribac-sodium line)) of the same compound?
A: 37.5%

Q: What about the “% Control MBI-005” value (broad-leaf mustard; MBI-005 0.25 mg/mL (propanil line)) of the same compound?
A: 58.3%

Q: And the “% Control MBI-005” value (sedge; MBI-005 0.01 mg/mL (cyhalofop line))?
A: 20.0%

Q: What about the “% Control MBI-005” value (sedge; MBI-005 0.01 mg/mL (penoxsulam line)) of the same compound?
A: 20.0%

Q: What about the “% Control MBI-005” value (sedge; MBI-005 0.02 mg/mL (fenoxaprop-p-ethyl line)) of the same compound?
A: 70.8%

Q: And the “% Control MBI-005” value (sedge; MBI-005 0.02 mg/mL (thiobencarb line))?
A: 37.5%

Q: What about the “Rating at 0.1 mg/ml (Reduction of Germination)” value [2] of the same compound?
A: ++++ (95-100)

Q: And the “Rating at 0.1 mg/ml (Reduction of Germination)” value [3]?
A: ++++ (95-100)

Q: And the “Rating at 0.1 mg/ml (Reduction of Germination)” value [4]?
A: ++++ (95-100)

Q: What about the “Rating at 0.1 mg/ml (Reduction of Germination)” value [5] of the same compound?
A: ++++ (95-100)

Q: And the “Rating at 0.1 mg/ml (Reduction of Germination)” value [6]?
A: ++++ (95-100)

Q: And the “Rating at 0.1 mg/ml (Reduction of Germination)” value [7]?
A: ++++ (95-100)

Q: And the “Rating at 0.1 mg/ml (Reduction of Germination)” value [8]?
A: ++++ (95-100)

Q: What about the “Rating at 0.1 mg/ml (Reduction of Germination)” value [9] of the same compound?
A: ++++ (95-100)

Q: And the “Rating at 0.1 mg/ml (Reduction of Germination)” value [10]?
A: ++++ (95-100)

Q: And the “Rating at 0.1 mg/ml (Reduction of Germination)” value [11]?
A: +++ (85-94)

Q: What about the “Rating at 0.1 mg/ml (Reduction of Germination)” value [12] of the same compound?
A: ++++ (95-100)

Q: And the “Rating at 0.1 mg/ml (Reduction of Germination)” value [13]?
A: ++++ (95-100)

Q: What about the “Rating at 0.1 mg/ml (Reduction of Germination)” value [14] of the same compound?
A: +++ (85-94)

Q: And the “Rating at 0.1 mg/ml (Reduction of Germination)” value [15]?
A: ++++ (95-100)

Q: What about the “Rating at 0.1 mg/ml (Reduction of Germination)” value [16] of the same compound?
A: ++++ (95-100)

Q: And the “AVG E (visual % damage)” value (crabgrass; [18])?
A: 10.0%

Q: And the “AVG E (visual % damage)” value (crabgrass; [19])?
A: 11.9%

Q: What about the “AVG/ E (visual % damage)” value (crabgrass; [18]) of the same compound?
A: 10.0%

Q: What about the “AVG/ E (visual % damage)” value (crabgrass; [19]) of the same compound?
A: 11.9%

Q: And the “% Control MBI-005” value ([17]; MBI-005 0.5% of the label rate (Bispyribac-sodium line))?
A: 3.3%

Q: What about the “% Control MBI-005” value ([17]; MBI-005 2.0% of the label rate (Penoxsulam line)) of the same compound?
A: 20.0%

Q: And the “% Control MBI-005” value ([17]; MBI-005 2.0% of the label rate (Propanil line))?
A: 20.0%

Q: What about the “% Control MBI-005” value ([17]; MBI-005 2.0% of the label rate (Thiobencarb line)) of the same compound?
A: 20.0%

Q: And the “Observed Average % Efficacy (E)” value (barnyard grass; 12.5% MBI-005 (of label rate))?
A: 10.0%

Q: What about the “Observed Average % Efficacy (E)” value (barnyard grass; 25% MBI-005 (of label rate)) of the same compound?
A: 20.0%
